From US20230405063A1, “USE OF PROBIOTIC COMPONENT AND PHARMACEUTICAL COMPOSITION CONTAINING PROBIOTIC COMPONENT” (CHENGDU KUACHANGAOPU MEDICAL TECHNOLOGY CO., LTD., priority 2020, published 2023)

Columns and labels:
Type in all cases: in vivo
[1] = system: gastric tumor cells (BGC823); assay: Tumor inhibition in BGC823 tumor-bearing nude mice (Example 5, Table 8); conditions: intratumoral injection once, 150 μl/mouse, 7th day
Text: (§1) The method for determining the effect of combined drug administration in animal experiments was Burgi method (Burgi Y. Pharmacology; Drug actions and reactions. Cancerres. 1978, 38(2), 284-285). The Burgi method was modified by Zhengjun JIN (Zhengjun JIN, Equal probability and curve and “Q50”, Journal of the Second Shanghai Medical College; 1981, 1, 75-86) with q calculated as: q=EA+B/(EA+EB−EA×EB). In the following examples of the present invention, the combinational pharmaceutical efficacies (drug efficacies) of drug A and drug B co-administration was determined by ratio q of actual pharmaceutical efficacy (drug efficacy)/theoretical pharmaceutical efficacy (drug efficacy) according to Zhengjun JIN method, as follows.
Nude mice were used as experimental subjects, and gastric tumor cells (BGC823) were used as modeling cells, 1×10^5 cells/mouse were injected into the right axilla subcutaneously for transplantation tumor modeling, and the average tumor volume of successfully modeled nude mice was 164.4 mm^3. The model animals were randomly divided into 14 groups, and the drugs according to the pharmacological constitutions in Table 8 were administered via intratumoral injection. Each group was dosed once with an injection volume of 150 μl/mouse; wherein the pharmaceutical compositions of groups 5, 11 were semi-fluid, the pharmaceutical compositions of other groups are liquid. On the 7th day after drug administration, the animals were euthanized, and after dissection, the tumor tissue was taken out to determine the tumor weight, and the tumor inhibition rate (r) was calculated relative to the negative control group. Further, the actual efficacy/expected efficacy ratio q of a drug could also be calculated according to the therapeutic effect (tumor inhibition rate).

[2] = system: human hepatoma cells (HepG2); assay: Tumor inhibition in HepG2 tumor-bearing nude mice, probiotic component/methylene blue (Example 7, Table 11); conditions: dosed twice, interval 7 days, 150 μl/mouse/time, 7th day after final administration, probiotic component = inactivated Saccharomyces cerevisiae
Text: as §1
Nude mice were used as experimental subjects, and human hepatoma cells (HepG2) were used as modeling cells. […] The model animals were randomly divided into 13 groups, and the drugs were administered according to Table 11. […] Each group was dosed twice with an interval of 7 days, and the injection volume was 150 μl/mouse/time. On the 7th day after final administration, the animals were euthanized, and the tumor tissues were taken out after dissection to determine the tumor weight, and the tumor inhibition rate was calculated relative to the negative control group.

[3] = system: mouse embryonic fibroblasts 3T3; assay: Local lesion inhibition in 3T3 fibroblast nodule model in nude mice (Example 6, Table 9); conditions: dosed twice at interval of 2 days, 150 μl/mouse/time, 7th day after final administration
Text: (§2) V=0.5×a×b^2, wherein a and b represent the length and width of the local lesion, respectively; Volume of the local lesion (e.g. tumor):
(§3) Local lesion (e.g., tumor) proliferation rate (R)=TV/CV×100, wherein TV and CV are the local lesion volumes in the study group and negative control group, respectively;
as §1
Nude mice were used as experimental subjects, and mouse embryonic fibroblasts 3T3 were used as modeling cells. 2×10^4 cells/mouse were injected into the right axilla subcutaneously for transplantation nodule modeling, and the average volume of tumor-like nodules in successfully modeled nude mice was 171.5 mm^3. The model animals were randomly divided into […], and the drugs were administered according to Table 9. Each group except for groups 21-24 were administered by intraperitoneal injection, intra-nodal injection. The drugs used in groups 21-24 were a composition of non-local administration dosage form (dosage form that a probiotic component and a co-administration substance could be administered separately). The administration route of series A was: intraperitoneal injection of probiotic component+intra-nodal injection of co-administration substance; and the administration route of series B was: intraperitoneal injection of co-administration substance+intra-nodal injection of probiotic component. Each group was dosed twice at an interval of 2 days, with an injection volume of 150 μl/mouse/time. On the 7th day after the final administration, the volume (V) of local lesions comprising fibroblasts was measured, and the relative local lesion inhibition rates (r′A, r′B) were calculated for series A and series B, respectively, as compared with the negative control group. Further, the actual drug efficacy/expected efficacy ratio q could also be calculated according to the therapeutic effect (local lesion inhibition rate).

[4] = system: breast cancer 4T1 cells; assay: Short-term tumor inhibition in 4T1 tumor-bearing BALB/c mice (Example 9, Table 14); conditions: dosed twice, 7th day after final administration
Text: as §1
BALB/c mice were used as experimental subjects, and breast cancer 4T1 cells were used as modeling cells. 0.5×10^6 cells/mouse were injected into the right axilla subcutaneously for transplantation tumor modeling, and the average tumor volume of successfully modeled nude mice was 160.1 mm^3. The model animals were randomly divided into 21 groups, and the drugs were administered by intravenous injection (series A) and intratumoral injection (series B) according to the drugs and doses in Table 14, respectively. All the drugs administered were aqueous liquids, which were formulated according to the method of Example 1. Each group was dosed twice. On the 7th day after final administration, the animals were euthanized, and the tumor tissues were taken out after dissection to determine the tumor weight, and the tumor inhibition rates rA and rB were calculated relative to the corresponding negative control groups in series A and series B.

[5] = system: mouse breast cancer 4T1 cells; assay: Middle-aged and elderly patient model, 4T1 tumors in eight-month-old mice, r′3d/r′21d (Example 14, Table 19); conditions: single intratumoral injection, 50 l/mouse; for Tumor inhibition rate r′3: day 3 after administration; for Tumor inhibition rate r′21: day 21 after administration
Text: as §2, §3, §1
Eight-month-old mice were used as experimental subjects in the middle-aged and elderly patient model, 0.5×10^5 mouse breast cancer 4T1 cells/mouse were injected into the right axilla subcutaneously for transplantation tumor modeling, and the mean tumor volume of successfully modeled nude mice was 117.3 mm^3. The model animals were randomly divided into 18 groups. Each group was administered once by intratumoral injection according to the drug grouping in Table 19 with an injection volume of 50 l/mouse. The local lesion volume (V) was measured on day 3 and day 21 after drug administration, and the tumor inhibition rates (r′3d, r′21d) were calculated at each of time points relative to the negative control group, and the results were shown in the following Table. The drugs to be administered were prepared according to the conventional preparation method for aqueous solution or according to the preparation method in Example 1. The actual/expected ratio q3d for short-term drug efficacy and the actual/expected ratio […] for medium- and long-term drug efficacy were calculated based on the drug efficacies (r′3d, r′21d) at different times (day 3, day 21), respectively.

Row | Compound | Tumor inhibition rate r [1] [%] | Tumor weight (x ± s) [1] [g] | Tumor inhibition rate [2] [%] | Tumor weight (x ± s) [2] [g] | Tumor weight (x ± s) ([2]; listed as 0.15% methylene blue) [g] | Tumor inhibition rate ([2]; listed as 0.50% methylene blue) [%] | Tumor weight (x ± s) ([2]; listed as 0.50% methylene blue) [g] | Tumor inhibition rate ([2]; listed as 3% methylene blue) [%] | Tumor weight (x ± s) ([2]; listed as 3% methylene blue) [g] | V (x ± s), volume of local lesions, series B ([3]; intra-nodal injection) [cm^3] | V (x ± s), volume of local lesions, series A ([3]; intraperitoneal injection) [cm^3] | tumor inhibition rate rA ([4]; series A: intravenous injection) [%] | tumor inhibition rate rB ([4]; series B: intratumoral injection) [%] | Tumor inhibition rate r′3 [5] [%] | Tumor inhibition rate r′21 [5] [%]
1 | CN(C)c1ccc2nc3ccc(=[N+](C)C)cc-3sc2c1 [1% methylene blue, methylene blue] | 12.5 | 0.197 ± 0.062 | 26.4 | 0.186 ± 0.096 | 0.227 ± 0.107 | 17.7 | 0.208 ± 0.115 | 71.1 | 0.073 ± 0.033 | 1.020 ± 0.210 | 1.288 ± 0.205 | 3.7 | 13.4 |  | 
2 | OC[C@H]1OC(O)[C@H](O)[C@@H](O)[C@@H]1O (some centres unmarked) [20% glucose aqueous solution] |  |  |  |  |  |  |  |  |  |  |  |  |  | 3.1 | 4.3
3 | OC[C@H]1OC(O)[C@H](O)[C@@H](O)[C@@H]1O (some centres unmarked) [30% glucose aqueous solution] |  |  |  |  |  |  |  |  |  |  |  |  |  | 20.8 | 8.2
